According to US7091354B2, “Processes for the preparation of peripheral opioid antagonist compounds and intermediates thereto” (Adolor Corporation, priority 2002, dated 2006):

melting point [°C] | SMILES
48 | C=C(C(=O)OC)[C@@H](O)c1ccccc1 (single isomer, unassigned)
51 | C=C(C(=O)OC)C(O)c1ccccc1 (single isomer, unassigned)
